Assay results taken from PMC8422164, “A comparison of three mucus-secreting airway cell lines (Calu-3, SPOC1 and UNCN3T) for use as biopharmaceutical models of the nose and lung” (European Journal of Pharmaceutics and Biopharmaceutics, 2021).

Experiments:
UNCN3T cells [1] = assay: Mucin secretion (ELLA) in response to inhaled drugs, UNCN3T on Geltrex-coated plastic; format: cell-based, human
Method: Wells were then washed three times with phosphate buffered saline (PBS) containing 0.05 % v/v Tween, 0.5 % w/v bovine gelatin type B (Sigma Aldrich), and blocked by incubation with PBS containing 1.0 % w/v gelatin at 37 °C for 1 h. […] Wells with samples from UNC[…] cells were incubated with biotinylated-Helix pomatia agglutinin prepared in the blocking solution. These wells were then washed before incubation with HRP-labelled streptavidin. Finally, plates containing samples from all cell lines were washed repeatedly and developed by the addition of substrate solution which consisted of o-phenylene diamine (Sigma […] tablet) prepared according to manufacturer's instructions, for 3 min at room temperature, after which the reaction was terminated by the addition of 20% (v/v) H2SO4. The absorbance at 492 nm was measured using an Ascent MultiskanTM plate reader (Thermo Fisher Scientific). The absorbance of the samples was compared with known mucin standards, purified by two rounds of density gradient ultracentrifugation, as described by […] et al., from the sputum of a volunteer with chronic obstructive pulmonary disease. Ethical approval was obtained from the University of Brighton School of Pharmacy and Biomolecular Sciences Ethics Committee, under reference PABSREC 0509, and informed consent was obtained from the volunteer.

UNCN3T cells [2] = assay: TEER of UNCN3T cells before and after AMP-PNP; settings: AMP-PNP 100 μM
Calu-3 cells = assay: Enhancement of mucin secretion using AMP-PNP (Secretagogue model), ELLA, Calu-3; format: cell-based, human; settings: Calu-3, AMP-PNP 100 μM, apical
Method: Cells cultured on inserts were arbitrarily divided into two groups termed 'low mucus' and 'high mucus'. […] Plates were kept on a shock-absorbing foam pad to prevent inadvertent mechanical stimulation of mucin secretion. […] Washes were stored at 4 °C until mucin secretion could be determined using an ELLA (on the day of treatment). At 10, 20 and 30 min, three further washes were performed and the average mucin content used to establish baseline mucin secretion. […] Each AMP-PNP/TB apical solution was changed (“like for like”) at 10-minute intervals. […] Wells were then washed three times with phosphate buffered saline (PBS) containing 0.05 % v/v Tween, 0.5 % w/v bovine gelatin type B (Sigma Aldrich), and blocked by incubation with PBS containing 1.0 % w/v gelatin at 37 °C for 1 h. […] Wells with samples from UNC[…] cells were incubated with biotinylated-Helix pomatia agglutinin prepared in the blocking solution. These wells were then washed before incubation with HRP-labelled streptavidin. […] The absorbance at 492 nm was measured using an Ascent MultiskanTM plate reader (Thermo Fisher Scientific). The absorbance of the samples was compared with known mucin standards, purified by two rounds of density gradient ultracentrifugation, as described by […] et al., from the sputum of a volunteer with chronic obstructive pulmonary disease. […]

UNCN3T cells [3] = assay: Enhancement of mucin secretion using AMP-PNP (Secretagogue model), ELLA, UNCN3T; format: cell-based, human
Method: Cells cultured on inserts were arbitrarily divided into two groups termed 'low mucus' and 'high mucus'. […] Plates were kept on a shock-absorbing foam pad to prevent inadvertent mechanical stimulation of mucin secretion. […] Washes were stored at 4 °C until mucin secretion could be determined using an ELLA (on the day of treatment). At 10, 20 and 30 min, three further washes were performed and the average mucin content used to establish baseline mucin secretion. […] Each AMP-PNP/TB apical solution was changed (“like for like”) at 10-minute intervals. […] Wells were then washed three times with phosphate buffered saline (PBS) containing 0.05 % v/v Tween, 0.5 % w/v bovine gelatin type B (Sigma Aldrich), and blocked by incubation with PBS containing 1.0 % w/v gelatin at 37 °C for 1 h. […] Wells with samples from UNC[…] cells were incubated with biotinylated-Helix pomatia agglutinin prepared in the blocking solution. These wells were then washed before incubation with HRP-labelled streptavidin. Finally, plates containing samples from all cell lines were washed repeatedly and developed by the addition of substrate solution which consisted of o-phenylene diamine (Sigma […] tablet) prepared according to manufacturer's instructions, for 3 min at room temperature, after which the reaction was terminated by the addition of 20% (v/v) H2SO4. The absorbance at 492 nm was measured using an Ascent MultiskanTM plate reader (Thermo Fisher Scientific). The absorbance of the samples was compared with known mucin standards, purified by two rounds of density gradient ultracentrifugation, as described by […] et al., from the sputum of a volunteer with chronic obstructive pulmonary disease. Ethical approval was obtained from the University of Brighton School of Pharmacy and Biomolecular Sciences Ethics Committee, under reference PABSREC 0509, and informed consent was obtained from the volunteer.

UNCN3T cells [4] = assay: Cytokine release (ELISA) in response to inhaled drugs, UNCN3T
Method: SPOC1 or UNCN3T cells were seeded onto 24-well tissue culture treated plates, pre-coated with a 1/20 dilution of Geltrex™. Cells were seeded at 5 × 10^4 cells/well and grown to confluence in the appropriate maintenance medium. The cells were washed four times (20 min per wash) with TB appropriate to each cell line after which the cells were incubated for 30 min at 37 °C 5% CO2/95% air in control or drug solutions prepared in the appropriate transport buffer. […] Samples from UNCN3T cells (human origin) were analysed for IL-6 and IL-8. Cytokines and mucins were quantified using ELISAs (Legend Max, BioLegend San Diego, CA) according to the manufacturer’s instructions and ELLA respectively.

[5] = UNCN3T control wells treated with 100 μM AMP-PNP at 100 min, by 120 min, data not shown

Nc1ncnc2c1ncn2[C@@H]1O[C@H](COP(=O)([O-])OP(=O)([O-])NP(=O)([O-])[O-])[C@@H](O)[C@H]1O.[Li+].[Li+].[Li+].[Li+] [AMP-PNP, adenylyl-imidodiphosphate, tetralithium salt]
Mucin secretion (UNCN3T cells [1]; UNCN3T on Geltrex-coated plastic, AMP-PNP 100 μM, 30 min, medium alone 0.94 ± 0.04): 3.22 ± 0.24 ng/well | Effect upon TEER (UNCN3T cells [2]): no discernible effect | Mean TEER after treatment (UNCN3T cells [2]; before treatment 229 ± 20): 219 ± 19 Ω.cm^2 | Effect on quantity of mucin secreted (Calu-3 cells): no significant increase | Effect on quantity of mucin secreted (Calu-3 cells; listed as adenylyl-imidodiphosphate): not | Fold increase in mucin secretion (UNCN3T cells [3]; [5]): 1.5 fold | Mucin level after AMP-PNP (UNCN3T cells [3]; [5]): 4.34 ± 0.83 ng/well | Fold increase in mucin secretion (UNCN3T cells [3]; UNCN3T, AMP-PNP 100 μM, vs baseline): 2 fold | Mucin level after AMP-PNP (UNCN3T cells [3]; UNCN3T, AMP-PNP 100 μM, baseline 2.91 ± 0.92): 5.44 ± 1.63 ng/well

O=S(=O)([O-])[O-].[O]=[V+2] [VOSO4, Vanadium (IV) oxide sulfate]
IL-6 release, fold that of culture medium (UNCN3T cells [4]): 66 fold | IL-6 release (UNCN3T cells [4]; VOSO4 20 μg mL^−1, 30 min, medium alone 1.9 ± 0.3): 124.0 ± 6.5 pg/mL | IL-8 release (UNCN3T cells [4]; VOSO4 20 μg mL^−1, 30 min, medium alone 12.5 ± 0.6): 251.1 ± 14.5 pg/mL

CCCC1O[C@@H]2C[C@H]3[C@@H]4CCC5=CC(=O)C=C[C@]5(C)[C@H]4[C@@H](O)C[C@]3(C)[C@]2(C(=O)CO)O1 (some centres unmarked) [budesonide]
Effect on mucin secretion (UNCN3T cells [1]; UNCN3T, inhaled drugs, vs culture medium alone): no effect | Effect on IL-8 release (UNCN3T cells [4]; 20 μM, 30 min): significantly increased
